# Read-outs that look alike come from different tables or passages of the source.
# Experiments:
# [1] = target: T1, hDM21-188 (hDM2) (Homo sapiens, UniProt Q00987); experiment: Competition fluorescence polarization (cFP) assay, inhibition of p53AD^Flu·hDM2 complexation; type: binding
# [2] = target: T1, hDM21-188 (hDM2); experiment: Direct fluorescence polarization binding of fluorescein-labeled ligands to hDM2
# [3] = Analytical ultracentrifugation, oligomeric state; type: physicochemical
# [4] = system: IZN17; experiment: Competition fluorescence polarization, inhibition of C14wt^Flu·IZN17 complexation; design: species or system HIV; settings: read-out: IC50, competition with C14wt^Flu for IZN17 binding
# [5] = target: IZN17; experiment: Direct fluorescence polarization binding to gp41 model IZN17; design: species or system HIV; settings: fluorescein-labeled ligand, direct FP; read-out: equilibrium affinity (Kd) for IZN17
# [6] = system: HeLa-CD4-LTR-β-gal cells and CHO-SEC cells; experiment: Cell-fusion assay (syncitia formation), gp41 mediated fusion; type: cell-based, HIV-1; settings: read-out: EC50, inhibition of cell-cell-fusion
# [7] = target: carbonic anhydrase II (Homo sapiens, UniProt P00918); settings: read-out: Kd for carbonic anhydrase II
# [8] = target: calmodulin (Homo sapiens, UniProt P0DP23); settings: read-out: Kd for calmodulin
# [9] = Circular dichroism: extent of 14-helix structure in aqueous buffer; type: physicochemical; settings: initial CD comparison of β53-1D and β53-1
# [10] = target: CREB KID·CBP KIX complex (Homo sapiens, UniProt Q92793); experiment: Inhibition of formation of the unrelated CREB KID·CBP KIX complex; type: binding; settings: specificity control
# [11] = fluorescein-labeled ligand, read-out: Kd, apparent equilibrium dissociation constant of complexes between fluorescein-labeled ligands and hDM2
# [12] = competition FP, unlabeled ligand
# [13] = read-out: IC50, inhibition of p53AD^Flu·hDM2 interaction
# [14] = read-out: binding affinity (Kd) for hDM2
# [15] = concentrations between 80 and 400 μM
# T1 sequence (Q00987 1-188 limits assumed): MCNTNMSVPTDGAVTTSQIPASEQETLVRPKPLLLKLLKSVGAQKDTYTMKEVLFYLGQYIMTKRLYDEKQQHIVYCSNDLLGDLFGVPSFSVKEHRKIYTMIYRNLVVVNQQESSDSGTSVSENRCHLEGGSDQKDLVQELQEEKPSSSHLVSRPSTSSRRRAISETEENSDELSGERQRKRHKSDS
# CREB KID·CBP KIX complex, sequence (Q92793 587-666 limits assumed, one chain of several): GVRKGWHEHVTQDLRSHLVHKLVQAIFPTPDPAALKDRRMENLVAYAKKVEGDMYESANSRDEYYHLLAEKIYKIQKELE
structure (smiles),measurement,setting,value
CC(C)C[C@@H](CC(=O)N[C@@H](CCC(=O)O)CC(=O)N[C@H]1CCCC[C@@H]1C(=O)N[C@H](CC(=O)N[C@@H](CCCN)CC(=O)N[C@H]1CCCC[C@@H]1C(=O)N[C@H](CC(=O)N[C@@H](CCC(=O)O)CC(=O)O)Cc1ccccc1)Cc1c[nH]c2ccccc12)NC(=O)[C@H]1CCCC[C@@H]1NC(=O)C[C@@H](N)CCCN [β53-ACtrip],IC50,[1]; unlabeled ligand,17.2 ± 1.3 µM
same,Kd,[2]; [11],0.17 ± 0.05 µM
same,oligomeric state,[3],"discrete higher-order oligomers, likely hexamers or heptamers"
CC(C)C[C@H](N)CC(=O)N[C@@H](CCC(=O)O)CC(=O)N[C@H](CC(=O)N[C@H](CC(=O)N[C@@H](CCCN)CC(=O)N[C@H](CC(=O)N[C@H](CC(=O)N[C@@H](CCC(=O)O)CC(=O)O)Cc1ccccc1)C(C)C)Cc1c[nH]c2ccccc12)C(C)C [β53-5],IC50,[1]; [12],80.8 ± 3.2 µM
CC[C@H](C)[C@@H](CC(=O)N[C@H](CC(=O)N[C@@H](CCC(=O)O)CC(=O)N[C@H](CC(=O)N[C@H](CC(=O)N[C@@H](CCCN)CC(=O)N[C@H](CC(=O)N[C@H](CC(=O)N[C@@H](CCC(=O)O)CC(=O)O)Cc1ccccc1)[C@@H](C)CC)Cc1c[nH]c2ccccc12)[C@@H](C)CC)CC(C)C)NC(=O)C[C@@H](N)CCCN [Hit 1],IC50,[1]; [13],13 ± 1 µM
same,Kd,[2]; [14],0.055 ± 0.008 µM
CC(C)[C@@H](CC(=O)N[C@H](CC(=O)N[C@@H](CCC(=O)O)CC(=O)O)Cc1ccccc1)NC(=O)C[C@H](CCCN)NC(=O)C[C@H](C)NC(=O)C[C@@H](NC(=O)C[C@H](CCC(=O)O)NC(=O)C[C@H](C)NC(=O)C[C@@H](NC(=O)C[C@@H](N)CCCN)C(C)C)C(C)C [β53-F9],IC50,[1]; [12],1700 ± 163 µM
CC[C@H](C)[C@@H](CC(=O)N[C@@H](CCC(=O)O)CC(=O)O)NC(=O)C[C@@H](NC(=O)C[C@H](CCCN)NC(=O)C[C@H](Cc1c[nH]c2ccccc12)NC(=O)C[C@@H](NC(=O)C[C@H](CCC(=O)O)NC(=O)C[C@H](Cc1c[nH]c2ccccc12)NC(=O)C[C@@H](NC(=O)C[C@@H](N)CCCN)C(C)C)C(C)C)C(C)C [βWWI-4],IC50,[4],3.3 ± 1.4 µM
same,Kd,[5],1.5 ± 0.4 µM
same,EC50,[6],5.3 ± 0.5 µM
CC(C)[C@H](N)CC(=O)N[C@H](CC(=O)N[C@@H](CCCN)CC(=O)N[C@H](CC(=O)N[C@H](CC(=O)N[C@@H](CCC(=O)O)CC(=O)O)Cc1ccccc1)C(C)C)Cc1c[nH]c2ccccc12 [β53-6],IC50 fold better than β53-1 and β53-5,[1],over 2 fold
same,IC50,[1]; [12],36.2 ± 2.6 µM
CC(C)C[C@@H](CC(=O)N[C@@H](CCC(=O)O)CC(=O)N[C@H]1CCCC[C@@H]1C(=O)N[C@H](CC(=O)N[C@@H](CCCN)CC(=O)N[C@H](CC(=O)N[C@H](CC(=O)N[C@@H](CCC(=O)O)CC(=O)O)Cc1ccccc1)C(C)C)Cc1c[nH]c2ccccc12)NC(=O)C[C@@H](NC(=O)C[C@@H](N)CCCN)C(C)C [β53-AC5],IC50,[1]; unlabeled ligand,60.3 ± 3.8 µM
same,Kd,[2]; [11],0.21 ± 0.04 µM
same,oligomeric state,[3],"discrete higher-order oligomers, likely hexamers or heptamers"
"CC(C)[C@H](N)CC(=O)N[C@H](CC(=O)N[C@@H](CCC(=O)O)CC(=O)NCCC(=O)O)Cc1c[nH]c2ccccc12 [β53-7, reference compound]",IC50,[1]; competition FP,> 1000 µM
CC[C@H](C)[C@@H](CC(=O)N[C@H](CC(=O)N[C@@H](CCC(=O)O)CC(=O)N[C@H](CC(=O)N[C@H](CC(=O)N[C@@H](CCCN)CC(=O)N[C@H](CC(=O)N[C@H](CC(=O)N[C@@H](CCC(=O)O)CC(=O)O)C(C)C)Cc1c[nH]c2ccccc12)C(C)C)Cc1c[nH]c2ccccc12)C(C)C)NC(=O)C[C@@H](N)CCCN [βWWI-2],IC50,[4],4.6 ± 0.4 µM
same,Kd,[5],1 ± 0.3 µM
same,EC50,[6],15 ± 1.6 µM
CC[C@H](C)[C@@H](CC(=O)N[C@H](CC(=O)N[C@@H](CCC(=O)O)CC(=O)N[C@H](CC(=O)N[C@H](CC(=O)N[C@@H](CCCN)CC(=O)N[C@H](CC(=O)N[C@H](CC(=O)N[C@@H](CCC(=O)O)CC(=O)O)Cc1ccccc1)C(C)C)Cc1c[nH]c2ccccc12)[C@@H](C)CC)CC(C)C)NC(=O)C[C@@H](N)CCCN [Hit 2],IC50,[1]; [13],11 ± 1 µM
same,Kd,[2]; [14],0.089 ± 0.02 µM
CC[C@H](C)[C@@H](CC(=O)N[C@@H](CCC(=O)O)CC(=O)N[C@H](CC(=O)N[C@H](CC(=O)N[C@@H](CCCN)CC(=O)N[C@H](CC(=O)N[C@H](CC(=O)N[C@@H](CCC(=O)O)CC(=O)O)Cc1c[nH]c2ccccc12)C(C)C)Cc1c[nH]c2ccccc12)C(C)C)NC(=O)C[C@@H](NC(=O)C[C@@H](N)CCCN)C(C)C [βWWI-1],Kd,[7],≥ 115 µM
same,Kd,[8],≥ 100 µM
same,IC50,[4],4 ± 0.7 µM
same,Kd,[5],0.75 ± 0.1 µM
same,EC50,[6],27 ± 2.5 µM
CC(C)C[C@@H](CC(=O)N[C@@H](CCC(=O)O)CC(=O)N[C@H](CC(=O)N[C@@H](C)CC(=O)N[C@@H](CCCN)CC(=O)N[C@H](CC(=O)N[C@@H](C)CC(=O)N[C@@H](CCC(=O)O)CC(=O)O)C(C)C)C(C)C)NC(=O)C[C@@H](NC(=O)C[C@@H](N)CCCN)C(C)C [β53-L3],IC50,[1]; [12],> 7000 µM
CC(C)C[C@@H](CC(=O)N[C@H](CC(=O)N[C@@H](CCC(=O)O)CC(=O)N[C@H](CC(=O)N[C@H](CC(=O)N[C@@H](CCCN)CC(=O)N[C@H](CC(=O)N[C@H](CC(=O)N[C@@H](CCC(=O)O)CC(=O)O)C(C)C)Cc1ccccc1)C(C)C)Cc1c[nH]c2ccccc12)C(C)C)NC(=O)C[C@@H](N)CCCN [β53-3],IC50,[1],1590 ± 104 µM
same,oligomeric state,[3]; [15],monomeric
CC(C)C[C@@H](CC(=O)N[C@@H](CCC(=O)O)CC(=O)N[C@H](CC(=O)N[C@H](CC(=O)N[C@@H](CCCN)CC(=O)N[C@H]1CCCC[C@@H]1C(=O)N[C@H](CC(=O)N[C@@H](CCC(=O)O)CC(=O)O)Cc1ccccc1)Cc1c[nH]c2ccccc12)C(C)C)NC(=O)C[C@@H](NC(=O)C[C@@H](N)CCCN)C(C)C [β53-AC8],IC50,[1]; unlabeled ligand,10.5 ± 0.8 µM
same,Kd,[2]; [11],0.22 ± 0.06 µM
same,oligomeric state,[3],could indicate a monomer-dimer equilibrium at low millimolar concentrations
CC(C)C[C@@H](CC(=O)N[C@@H](CCC(=O)O)CC(=O)N[C@H](CC(=O)N[C@H](CC(=O)N[C@@H](CCCN)CC(=O)N[C@H](CC(=O)N[C@H](CC(=O)N[C@@H](CCC(=O)O)CC(=O)O)Cc1ccccc1)C(C)C)Cc1c[nH]c2ccccc12)C(C)C)NC(=O)C[C@@H](NC(=O)C[C@@H](N)CCCN)C(C)C [β53-1],IC50,[1]; [12],94.5 ± 4.4 µM
same,mean residue ellipticity,[9],−8450.4 deg·cm^2·dmol^−1
same,Kd,[2]; [11],0.37 ± 0.08 µM
same,oligomeric state,[3]; at concentrations exceeding 1 mM,monomeric
same,oligomeric state,[3]; [15],monomeric
same,inhibition of formation of CREB KID·CBP KIX complex,[10],failed to inhibit
"N[C@H](CC(=O)O)Cc1c[nH]c2ccccc12 [β^3W, β^3-homotyptophan, reference compound]",IC50,[1]; competition FP,> 1000 µM
CC(C)[C@@H](CC(=O)N[C@H](CC(=O)N[C@@H](CCCN)CC(=O)N[C@H](CC(=O)N[C@@H](C)CC(=O)N[C@@H](CCC(=O)O)CC(=O)O)C(C)C)Cc1c[nH]c2ccccc12)NC(=O)C[C@H](CCC(=O)O)NC(=O)C[C@H](C)NC(=O)C[C@@H](NC(=O)C[C@@H](N)CCCN)C(C)C [β53-W6],IC50 value fold higher than that of β53-1,[1],2 fold
same,IC50,[1]; [12],198 ± 10 µM
CC[C@H](C)[C@@H](CC(=O)N[C@H](CC(=O)N[C@@H](CCC(=O)O)CC(=O)O)C(C)C)NC(=O)C[C@H](CCCN)NC(=O)C[C@@H](NC(=O)C[C@H](Cc1c[nH]c2ccccc12)NC(=O)C[C@H](CCC(=O)O)NC(=O)C[C@@H](NC(=O)C[C@H](Cc1c[nH]c2ccccc12)NC(=O)C[C@@H](N)CCCN)C(C)C)C(C)C [βWWI-3],IC50,[4],13 ± 4.1 µM
same,Kd,[5],2.4 ± 0.7 µM
same,EC50,[6],13 ± 1.9 µM
CC(C)C[C@@H](CC(=O)N[C@@H](CCC(=O)O)CC(=O)N[C@H](CC(=O)N[C@H](CC(=O)N[C@@H](CCCN)CC(=O)N[C@H](CC(=O)N[C@H](CC(=O)N[C@@H](CCC(=O)O)CC(=O)O)Cc1ccccc1)C(C)C)Cc1c[nH]c2ccccc12)C(C)C)NC(=O)[C@H]1CCCC[C@@H]1NC(=O)C[C@@H](N)CCCN [β53-AC2],IC50,[1]; unlabeled ligand,15.5 ± 1 µM
same,Kd,[2]; [11],0.21 ± 0.04 µM
same,oligomeric state,[3],no evidence of oligomerization
